Data reported in patent publication US12338218B2, “Crystal form of benzimidazole-2-one compound, solvate thereof, crystal form of solvate thereof, and preparation method thereof” (MEDSHINE DISCOVERY INC., priority 2019, dated 2025).
Read-outs that look alike come from different tables or passages of the source.

What was measured:
Type in all cases: physicochemical
[1] = Solid stability assay at high temperature, high humidity and strong light
Method: Method for Determining Content Disclosed Herein
Instrument model: Agilent 1260 high performance liquid chromatograph
Detailed parameters of chromatographic conditions were as follows:
Column temperature: 35° C.
Detection wavelength: 230 nm
Mobile phase A: 0.04% aqueous trifluoroacetic acid solution (V/V)
Mobile phase B: 100% acetonitrile
Diluent: acetonitrile: pure water=50:50 (V/V)
Probe Wash: acetonitrile: pure water=50:50 (V/V)
Gradient elution program: […]
According to “Guidelines for Stability Assay of APIs and Preparations” (Chinese Pharmacopoeia 2015 Edition, Volume IV, General Principles 9001), crystal form A of compound 1 was assayed for stability at high temperature (60° C., open), high humidity (room temperature/92.5% relative humidity, open) and strong light (5000±500 Lux, 90 μw/cm^2, sealed).
1.5 g of crystal form A of compound 1 was weighed, placed in an open watch glass, and spread into a thin layer. The samples placed under high temperature and high humidity conditions were placed in a desiccator for inspection, and samples were taken on the 5th, 10th, and 30th days for assaying. The assay results were compared with the initial assay results on day 0. The samples placed under strong light condition were covered with a quartz glass cover, and samples were taken on the 5th and 10th days for assaying. The assay results were compared with the initial assay results on day 0.

[2] = Solid stability assay under long-term condition (25° C./60% relative humidity, sealed)
Method: According to “Guidelines for Stability Assay of APIs and Preparations” (Chinese Pharmacopoeia 2015 Edition, Volume IV, General Principles 9001), crystal form A of compound 1 was assayed for stability under long-term condition (25° C./60% relative humidity, sealed).
1.5 g of crystal form A of compound 1 was weighed and placed in a double-layer low-density polyethylene bag. Each layer of low-density polyethylene bag was sealed by buckling, respectively, and then the double-layer low-density polyethylene bag was placed in an aluminum foil bag and heat-sealed. Samples were taken on the 3rd and 6th months for assaying, and the assay results were compared with the initial assay results on day 0.

[3] = Stability assay of crystal form A in different solvents (XRPD after 2 weeks)
Method: 17 aliquots of crystal form A of compound 1 were weighed (about 15 mg per aliquot), and an appropriate amount of a single or mixed solvent in the Table below was added, respectively. The suspension was stirred at room temperature or 50° C. for 2 weeks. Solids were collected by centrifugation, and detected by XRPD for the crystal form status.

[4] = Solid stability assay under accelerated condition (40° C./75% relative humidity, sealed)
Method: According to “Guidelines for Stability Assay of APIs and Preparations” (Chinese Pharmacopoeia 2015 Edition, Volume IV, General Principles 9001), crystal form A of compound 1 was assayed for stability under accelerated condition of high temperature and high humidity (40° C./75% relative humidity, sealed).
1.5 g of crystal form A of compound 1 was weighed and placed in a double-layer low-density polyethylene bag. Each layer of low-density polyethylene bag was sealed by buckling, respectively, and then the double-layer low-density polyethylene bag was placed in an aluminum foil bag and heat-sealed. Samples were taken on the 1st, 2nd, 3rd and 6th months for assaying, and the assay results were compared with the initial assay results on day 0.

[5] = Hygroscopicity of crystal form A (dynamic vapor sorption)
Method: SEM Advantage-1 Dynamic Vapor Sorption Apparatus.
10-30 mg of crystal form A of compound 1 was weighed and placed in a DVS sample pan for assaying.

[6] = High humidity (room temperature/92.5% relative humidity, open), Day 5
[7] = High humidity (room temperature/92.5% relative humidity, open), Day 10
[8] = High humidity (room temperature/92.5% relative humidity, open), Day 30
[9] = High temperature (60° C., open), Day 5
[10] = High temperature (60° C., open), Day 10
[11] = High temperature (60° C., open), Day 30
[12] = Strong light (5000 ± 500 Lux, 90 μw/cm^2, sealed), Day 5
[13] = Strong light (5000 ± 500 Lux, 90 μw/cm^2, sealed), Day 10
[14] = 25° C./60% relative humidity, sealed, Month 3
[15] = 25° C./60% relative humidity, sealed, Month 6
[16] = 40° C./75% relative humidity, sealed, Month 1
[17] = 40° C./75% relative humidity, sealed, Month 2
[18] = 40° C./75% relative humidity, sealed, Month 3
[19] = 40° C./75% relative humidity, sealed, Month 6

CCOc1cc([C@@H](CS(C)(=O)=O)n2c(=O)[nH]c3cc(F)ccc32)ccc1OC [crystal form A of compound 1]
Appearance ([1]; Day 0): White | Content ([1]; Day 0): 99.5% | Total impurity ([1]; Day 0): 0.33% | Appearance [1, 6]: White | Content [1, 6]: 101.1% | Total impurity [1, 6]: 0.32% | Appearance [1, 7]: White | Content [1, 7]: 100.3% | Total impurity [1, 7]: 0.32% | Appearance [1, 8]: White | Content [1, 8]: 99.5% | Total impurity [1, 8]: 0.33% | Appearance [1, 9]: White | Content [1, 9]: 101.3% | Total impurity [1, 9]: 0.32% | Appearance [1, 10]: White | Content [1, 10]: 100.3% | Total impurity [1, 10]: 0.32% | Appearance [1, 11]: White | Content [1, 11]: 99.2% | Total impurity [1, 11]: 0.33% | Appearance [1, 12]: White | Content [1, 12]: 100.4% | Total impurity [1, 12]: 0.33% | Appearance [1, 13]: White | Content [1, 13]: 100.7% | Total impurity [1, 13]: 0.33% | solid stability (in words) ([1]; high temperature, high humidity, or strong light condition): good stability | Appearance [2, 14]: White | Content [2, 14]: 99.0% | Total impurity [2, 14]: 0.34% | Appearance [2, 15]: White | Content [2, 15]: 99.5% | Total impurity [2, 15]: 0.33% | Appearance ([2]; Day 0): White | Content ([2]; Day 0): 99.5% | Total impurity ([2]; Day 0): 0.33% | solid stability (in words) ([2]; long-term condition of 25° C./60% relative humidity): good stability | Status (after 2 weeks) ([3]; 1,4-Dioxane:n-heptane (1:1), 50° C.): Suspension | Status (after 2 weeks) ([3]; 2-Butanol:m-xylene (2:1), 50° C.): Suspension | Status (after 2 weeks) ([3]; 2-Methyltetrahydrofuran:n-octane (4:1), 50° C.): Suspension | Status (after 2 weeks) ([3]; Acetone:toluene (2:1), room temperature): Suspension | Status (after 2 weeks) ([3]; Acetonitrile:water (3:1), room temperature): Suspension | Status (after 2 weeks) ([3]; Dichloromethane:m-xylene (1:1), room temperature): Suspension | Status (after 2 weeks) ([3]; Dimethyl sulfoxide:water (2:1), 50° C.): Suspension | Status (after 2 weeks) ([3]; Ethanol:water (3:1), 50° C.): Suspension | Status (after 2 weeks) ([3]; Ethyl acetate:m-xylene (2:1), room temperature): Suspension | Status (after 2 weeks) ([3]; Isopropanol:water (85:5), room temperature): Suspension | Status (after 2 weeks) ([3]; Isopropanol:water (92:8), room temperature): Suspension | Status (after 2 weeks) ([3]; Isopropanol:water (95:5), room temperature): Suspension | Status (after 2 weeks) ([3]; Isopropanol:water (98:2), room temperature): Suspension | Status (after 2 weeks) ([3]; Methyl isobutyl ketone:n-hexane (2:1), 50° C.): Suspension | Status (after 2 weeks) ([3]; Methyl tert-butyl ether, room temperature): Suspension | Status (after 2 weeks) ([3]; Toluene, room temperature): Suspension | Status (after 2 weeks) ([3]; Water, room temperature): Suspension | stability in solvents (in words) ([3]; methyl tert-butyl ether, toluene, water, mixed solvent of alcohol and water): good stability | Appearance [4, 16]: White | Content [4, 16]: 99.5% | Total impurity [4, 16]: 0.32% | Appearance [4, 17]: White | Content [4, 17]: 99.4% | Total impurity [4, 17]: 0.33% | Appearance [4, 18]: White | Content [4, 18]: 99.2% | Total impurity [4, 18]: 0.33% | Appearance [4, 19]: White | Content [4, 19]: 99.5% | Total impurity [4, 19]: 0.33% | Appearance ([4]; Day 0): White | Content ([4]; Day 0): 99.5% | Total impurity ([4]; Day 0): 0.33% | solid stability (in words) ([4]; accelerated condition of 40° C./75% relative humidity): good stability | hygroscopicity (in words) [5]: low hygroscopicity | hygroscopic weight gain (ΔW) ([5]; DVS, 25° C. and 80% RH): 0.05% | hygroscopicity (in words) ([5]; listed as Crystal form A of compound 1): no or almost no hygroscopicity
